Consider 1 compound from PMC6309729 (Biochemistry, 2011).

Common to all, as to type: biochemical
Test [1] deals with T1, cpSRP54•cpFtsY complex (Arabidopsis thaliana, UniProt O80842+P37107).
T1 sequence (P37107 76-564): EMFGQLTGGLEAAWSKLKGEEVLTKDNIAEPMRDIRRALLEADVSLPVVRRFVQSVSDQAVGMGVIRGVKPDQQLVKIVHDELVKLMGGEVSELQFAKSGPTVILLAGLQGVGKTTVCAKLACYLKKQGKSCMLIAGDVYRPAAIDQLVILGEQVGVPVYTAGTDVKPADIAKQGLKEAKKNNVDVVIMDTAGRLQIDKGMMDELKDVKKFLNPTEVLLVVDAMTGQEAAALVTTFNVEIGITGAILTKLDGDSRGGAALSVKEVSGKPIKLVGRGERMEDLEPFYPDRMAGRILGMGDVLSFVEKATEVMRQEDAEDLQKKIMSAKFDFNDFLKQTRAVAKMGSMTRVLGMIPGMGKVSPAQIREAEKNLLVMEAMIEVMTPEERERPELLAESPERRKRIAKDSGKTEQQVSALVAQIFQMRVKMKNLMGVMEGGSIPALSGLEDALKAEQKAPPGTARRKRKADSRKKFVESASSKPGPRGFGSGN
T1 sequence (O80842 41-366): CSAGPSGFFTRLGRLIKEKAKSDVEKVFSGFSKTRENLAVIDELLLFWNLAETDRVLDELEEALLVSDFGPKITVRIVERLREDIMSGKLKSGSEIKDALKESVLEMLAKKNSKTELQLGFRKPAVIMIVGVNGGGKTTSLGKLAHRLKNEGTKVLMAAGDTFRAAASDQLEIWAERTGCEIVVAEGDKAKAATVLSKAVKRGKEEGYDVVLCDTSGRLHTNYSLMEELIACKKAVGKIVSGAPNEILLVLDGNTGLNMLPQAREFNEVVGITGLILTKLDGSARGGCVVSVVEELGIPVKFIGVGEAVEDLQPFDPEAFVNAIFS
Description: reciprocally stimulated multiple-turnover GTPase assay. Conditions: 25 °C, pH 7.5, 100 μM GTP, 100 nM cpSRP54, varied cpFtsY.

In test [2] the target is T2, cpSRP54 (Arabidopsis thaliana, UniProt P37107).
T2 sequence (P37107 76-564): T1 sequence (P37107 76-564)
Description: basal GTP binding / GTPase assay. Conditions: 25 °C, pH 7.5, Mg(OAc)2; cpSRP54 alone.

For test [3], the target named is T3, cpFtsY (Arabidopsis thaliana, UniProt O80842).
T3 sequence (O80842 41-366): T1 sequence (O80842 41-366)
Description: basal GTP binding / GTPase assay. To be noted: 25 °C, pH 7.5, Mg(OAc)2; cpFtsY alone.

Regarding `Nc1nc2c(ncn2[C@@H]2O[C@H](COP(=O)(O)OP(=O)(O)OP(=O)(O)O)[C@@H](O)[C@H]2O)c(=O)[nH]1` [GTP], the “reciprocally stimulated multiple-turnover GTPase assay” value in test [1] was “reciprocally stimulated GTPase reaction between cpFtsY and cpSRP”. Moreover, the “basal GTP binding / GTPase assay” value was “basal GTP binding and hydrolysis activity (Tables S3 and S4 of Supporting Information, respectively)” in test [2]; “basal GTP binding and hydrolysis activity (Tables S3 and S4 of Supporting Information, respectively)” in test [3].
